Results published in patent publication US11414406B2, “Antagonists of the muscarinic acetylcholine receptor M4” (Vanderbilt University, priority 2018, dated 2022).

System: catalepsy induced by the DA receptor antagonist haloperidol
Assay: haloperidol-induced catalepsy in mice
Type: in vivo
Description: Furthermore, haloperidol-induced catalepsy, a model of parkinsonian motor disability, is reduced in M4 knockout mice as compared to wild-type controls. […] The reversal by scopolamine was uncommonly robust and more pronounced than we observe with agents targeting a number of other targets being evaluated for potential antiparkinsonian effects, including metabotropic glutamate (mGlu) receptors mGlu4 or mGlu5, A2A adenosine receptors, and NMDA receptors. […] Taken together with the extensive studies of M4 modulation of basal ganglia and motor function, these studies provide compelling evidence that M4 is the dominant mAChR subtype involved in the antiparkinsonian effects of non-selective mAChR antagonists and provide support for discovery and development of selective M4 antagonists for treatment of neurodegenerative disease such as PD, dystonia, tardive dyskinesia and other movement disorders.

## CN1[C@@H]2C[C@@H](OC(=O)[C@H](CO)c3ccccc3)C[C@H]1[C@@H]1O[C@@H]12 [scopolamine]
M4 KO mice
  reduction of haloperidol-induced catalepsy: ineffective
WT mice
  reversal of haloperidol-induced catalepsy: completely reversed
